Data on 1 molecule can be found in BindingDB's records for patent US9556181 (Bayer Pharma Aktiengesellschaft, 2017).

As usually defined, the IC50 is the concentration needed to halve the response being measured.

This assay deals with T1, MAP kinase-interacting serine/threonine-protein kinase 1 [T344D] (Homo sapiens, UniProt Q9BUB5, T344D).
T1 construct: gene MKNK1
Nature of the assay: MKNK1 Kinase High ATP Assay. The note with it: pH 7.5. The source says: TBDA recombinant fusion protein of Glutathione-S-Transferase (GST, N-terminally) and human full-length MKNK1 (amino acids 1-424 and T344D of accession number BAA 19885.1), expressed in insect cells using baculovirus expression system and purified via glutathione sepharose affinity chromatography, was purchased from Carna Biosciences (product no 02-145) and used as enzyme. As substrate for the kinase reaction the biotinylated peptide biotin-Ahx-IKKRKLTRRKSLKG (C-terminus in amide form) was used, which can be purchased e.g. from the company Biosyntan (Berlin-Buch, Germany).For the assay 50 nL of a 100 fold concentrated solution of the test compound in DMSO was pipetted into a black low volume 384 well microtiter plate (Greiner Bio-One, Frickenhausen, Germany), 2 μL of a solution of MKNK1 in aqueous assay buffer [50 mM HEPES pH 7.5, 5 mM MgCl2, 1.0 mM dithiothreitol, 0.005% (v/v) Nonidet-P40 (Sigma)] was added and the mixture was incubated for 15 min at 22° C. to allow pre-binding of the test compounds to the enzyme before the start of the kinase reaction. Then the kinase reaction was started by the addition of 3 μL of a solution of adenosine-tri-phosphate (ATP, 3.3 mM=>final conc. in the 5 μL assay volume is 2 mM) and substrate (0.1 μM=>final conc. in the 5 μL assay volume is 0.06 μM) in assay buffer and the resulting mixture was incubated for a reaction time of 30 min at 22° C. […]

T1 sequence (Q9BUB5 whole entry, looked up, stated change not applied): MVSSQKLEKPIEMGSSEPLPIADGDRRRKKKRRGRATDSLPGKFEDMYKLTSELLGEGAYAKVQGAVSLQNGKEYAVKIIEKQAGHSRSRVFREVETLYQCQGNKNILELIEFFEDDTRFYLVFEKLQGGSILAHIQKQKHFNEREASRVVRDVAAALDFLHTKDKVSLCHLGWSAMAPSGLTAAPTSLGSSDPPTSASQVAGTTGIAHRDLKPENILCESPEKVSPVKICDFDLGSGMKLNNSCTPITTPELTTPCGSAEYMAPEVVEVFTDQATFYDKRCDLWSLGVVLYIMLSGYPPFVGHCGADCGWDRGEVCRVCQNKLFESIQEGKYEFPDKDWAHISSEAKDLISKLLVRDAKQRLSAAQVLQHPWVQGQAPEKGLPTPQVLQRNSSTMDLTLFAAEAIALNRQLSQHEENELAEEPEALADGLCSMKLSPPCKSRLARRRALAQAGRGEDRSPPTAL

In turn, `COc1cc2[nH]ncc2cc1Nc1ncnc2[nH]ncc12` [US9556181, 2] showed an IC50 of 49 nM.
